The values that follow come from patent EP4748864A1, “POLYMERIZATION INITIATOR OR PHOTOSENSITIZER, POLYMERIZATION INITIATION COMPOSITION, AND METHOD FOR PRODUCING RESIN” (Miyoshi Oil & Fat Co., Ltd., priority 2023, dated 2025).

Holding throughout (type): physicochemical
Data set [1] in a line: UV absorption characteristics of component (A), UV-visible spectrophotometer. To be noted: 100 µM chloroform solution, 10-mm quartz cell; for Maximum absorption wavelength Molar absorption coefficient: at the maximum absorption wavelength. How it is done:
A 100 µM chloroform solution of each benzophenone derivative was prepared and placed in a 10-mm quartz cell. The absorption spectrum was measured using a UV-visible spectrophotometer (V-550, manufactured by JASCO Corporation).

Data set [2] is described as follows: Solubility of component (A) in monomers and solvents, visual observation. The arrangement: key to Solubility Butyl acrylate / Solubility Toluene: ⊚: dissolved transparently; ∘: dissolved almost transparently, but turbidity was observed; △: not dissolved. As to conditions: for Solubility Butyl acrylate: 0.1 g in butyl acrylate (1.0 g); for Solubility Butyl acrylate / Solubility Toluene: visual; for Solubility Toluene: 0.1 g in toluene (1.0 g); for solubility in butyl acrylate and toluene, result in words: 0.1 g in butyl acrylate (1.0 g) or toluene (1.0 g). The procedure: The components (A), A-1 to A-4 and A-9 to A-12, (0.1 g) was added to butyl acrylate (1.0 g) or toluene (1.0 g), and the resulting mixture was stirred. The appearance of the mixture was visually observed, and the solubility was evaluated as follows (Table 5).
• ⊚: dissolved transparently • ∘: dissolved almost transparently, but turbidity was observed • △: not dissolved

Data set [3] is described as follows: Heat resistance of component (A): 5% weight loss temperature by TG/DTA. To be noted: heating rate 10°C/min, 25°C to 550°C. How it is done: The 5% weight loss temperature of each benzophenone derivative was measured as follows. Using a simultaneous differential thermal and thermogravimetric analyzer (TG/DTA6200, manufactured by SII), heating was performed at a heating rate of 10°C/min in a measurement range of 25°C to 550°C, and the temperature at which the weight change (TG) decreased by 5% by weight was read.

Regarding `Cc1cc(C(C)(C)C)ccc1Sc1ccc(C(=O)c2ccc(Sc3ccc(C(C)(C)C)cc3C)cc2)cc1` [A-9, 4,4'-Dithio(4-tert-butyl-2-methylphenyl)benzophenone], in data set [1], the “Maximum absorption wavelength Wavelength” value came out at 329 nm, the “Molar absorption coefficient at 365 nm” value was 3870 L/mol/cm and the “Maximum absorption wavelength Molar absorption coefficient” value came to 32600 L/mol/cm. Further, in data set [2], the “Solubility Butyl acrylate” value was “⊚” and the “Solubility Toluene” value is “⊚”.
`CC(C)c1ccc(Sc2ccc(C(=O)c3ccc(Sc4ccc(C(C)C)cc4)cc3)cc2)cc1` [A-3, 4,4'-Bis(p-isopropylphenylthio)benzophenone]: in data set [1], the “Maximum absorption wavelength Wavelength” value worked out at 327 nm and the “Maximum absorption wavelength Molar absorption coefficient” value worked out at 31440 L/mol/cm. Moreover, in data set [2], the “solubility in butyl acrylate and toluene, result in words” value is reported as “good solubility”; the “Solubility Butyl acrylate” value is on record as “⊚”; the “Solubility Toluene” value is “⊚”.
Turning to `CCCCCCCCSc1ccc(C(=O)c2ccc(SCCCCCCCC)cc2)cc1` [A-7, 4,4'-Bis(octylthio)benzophenone, reference compound], in data set [1], the “Maximum absorption wavelength Wavelength” value was found to be 326 nm, the “Molar absorption coefficient at 365 nm” value was 2000 L/mol/cm and the “Maximum absorption wavelength Molar absorption coefficient” value turned out to be 24800 L/mol/cm. In addition, the “5% weight loss temperature” value in data set [3] was 282 °C.
Consider `Cc1ccc(C)c(Sc2ccc(C(=O)c3ccc(Sc4cc(C)ccc4C)cc3)cc2)c1` [A-12, 4,4'-Dithio(2,5-dimethylphenyl)benzophenone], for which, in data set [1], the “Maximum absorption wavelength Wavelength” value was determined as 328 nm, the “Molar absorption coefficient at 365 nm” value was determined as 3250 L/mol/cm and the “Maximum absorption wavelength Molar absorption coefficient” value came out at 31590 L/mol/cm. Moreover, in data set [2], the “Solubility Butyl acrylate” value is “○” and the “Solubility Toluene” value is listed as “⊚”.
As for `CC(C)(C)c1ccc(Sc2ccc(C(=O)c3ccc(Sc4ccc(C(C)(C)C)cc4)cc3)cc2)cc1` [A-4, 4,4'-Bis(p-tert-butylphenylthio)benzophenone], in data set [1], the “Maximum absorption wavelength Wavelength” value stood at 328 nm and the “Maximum absorption wavelength Molar absorption coefficient” value worked out at 31120 L/mol/cm. For the same compound, in data set [2], the “solubility in butyl acrylate and toluene, result in words” value is recorded as “good solubility”; the “Solubility Butyl acrylate” value is reported as “○”; the “Solubility Toluene” value was “⊚”.
In the case of `S=C(c1ccc(-c2ccccc2)cc1)c1ccc(-c2ccccc2)cc1` [A-1, 4,4'-Diphenylthiobenzophenone], in data set [1], the “Maximum absorption wavelength Wavelength” value came out at 326 nm, the “Molar absorption coefficient at 365 nm” value amounted to 3900 L/mol/cm and the “Maximum absorption wavelength Molar absorption coefficient” value was 32880 L/mol/cm. For the same compound, the “5% weight loss temperature” value in data set [3] worked out at 314 °C. For the same compound, in data set [2], the “Solubility Butyl acrylate” value is on record as “Δ” and the “Solubility Toluene” value is reported as “Δ”.
On to `Cc1ccc(Sc2ccc(C(=O)c3ccccc3)cc2)cc1` [A-5, 4-(p-Tolylthio)benzophenone, reference compound], for which, in data set [1], the “Maximum absorption wavelength Wavelength” value is reported as 316 nm, the “Molar absorption coefficient at 365 nm” value worked out at 700 L/mol/cm and the “Maximum absorption wavelength Molar absorption coefficient” value was 13200 L/mol/cm. In addition, the “5% weight loss temperature” value in data set [3] came to 235 °C.
With 4,4'-Ditolylthiobenzophenone [A-2], in data set [1], the “Maximum absorption wavelength Wavelength” value came to 327 nm and the “Maximum absorption wavelength Molar absorption coefficient” value turned out to be 31500 L/mol/cm. Moreover, in data set [2], the “Solubility Butyl acrylate” value was “Δ” and the “Solubility Toluene” value is “○”.
`Cc1ccc(Sc2ccc(C(=O)c3ccc(Sc4ccc(C)cc4C)cc3)cc2)c(C)c1` [A-11, 4,4'-Dithio(2,4-dimethylphenyl)benzophenone]: in data set [1], the “Maximum absorption wavelength Wavelength” value amounted to 329 nm, the “Molar absorption coefficient at 365 nm” value is 3830 L/mol/cm and the “Maximum absorption wavelength Molar absorption coefficient” value came to 31640 L/mol/cm. Moreover, in data set [2], the “Solubility Butyl acrylate” value is on record as “○” and the “Solubility Toluene” value is recorded as “○”.
On to `Cc1cccc(Sc2ccc(C(=O)c3ccc(Sc4cccc(C)c4)cc3)cc2)c1` [A-10, 4,4'-Dithio(3-methylphenyl)benzophenone], for which, in data set [1], the “Maximum absorption wavelength Wavelength” value is given as 328 nm and the “Maximum absorption wavelength Molar absorption coefficient” value was 30730 L/mol/cm. For the same compound, in data set [2], the “Solubility Butyl acrylate” value was “○” and the “Solubility Toluene” value is listed as “⊚”.
Consider `CSc1ccc(C(=O)c2ccc(SC)cc2)cc1` [A-6, 4,4'-Bis(methylthio)benzophenone, reference compound], for which, in data set [1], the “Maximum absorption wavelength Wavelength” value amounted to 323 nm, the “Molar absorption coefficient at 365 nm” value is 1100 L/mol/cm and the “Maximum absorption wavelength Molar absorption coefficient” value is 25100 L/mol/cm. In addition, the “5% weight loss temperature” value in data set [3] is 239 °C.
